Measured values reported in article PMC7409302 (Cancers, 2020).

Target: T1, androgen receptor (AR) (Homo sapiens, UniProt P10275, T878A)
T1 construct: endogenous full-length AR in LNCaP cells
T1 sequence (P10275 1-920 T878A): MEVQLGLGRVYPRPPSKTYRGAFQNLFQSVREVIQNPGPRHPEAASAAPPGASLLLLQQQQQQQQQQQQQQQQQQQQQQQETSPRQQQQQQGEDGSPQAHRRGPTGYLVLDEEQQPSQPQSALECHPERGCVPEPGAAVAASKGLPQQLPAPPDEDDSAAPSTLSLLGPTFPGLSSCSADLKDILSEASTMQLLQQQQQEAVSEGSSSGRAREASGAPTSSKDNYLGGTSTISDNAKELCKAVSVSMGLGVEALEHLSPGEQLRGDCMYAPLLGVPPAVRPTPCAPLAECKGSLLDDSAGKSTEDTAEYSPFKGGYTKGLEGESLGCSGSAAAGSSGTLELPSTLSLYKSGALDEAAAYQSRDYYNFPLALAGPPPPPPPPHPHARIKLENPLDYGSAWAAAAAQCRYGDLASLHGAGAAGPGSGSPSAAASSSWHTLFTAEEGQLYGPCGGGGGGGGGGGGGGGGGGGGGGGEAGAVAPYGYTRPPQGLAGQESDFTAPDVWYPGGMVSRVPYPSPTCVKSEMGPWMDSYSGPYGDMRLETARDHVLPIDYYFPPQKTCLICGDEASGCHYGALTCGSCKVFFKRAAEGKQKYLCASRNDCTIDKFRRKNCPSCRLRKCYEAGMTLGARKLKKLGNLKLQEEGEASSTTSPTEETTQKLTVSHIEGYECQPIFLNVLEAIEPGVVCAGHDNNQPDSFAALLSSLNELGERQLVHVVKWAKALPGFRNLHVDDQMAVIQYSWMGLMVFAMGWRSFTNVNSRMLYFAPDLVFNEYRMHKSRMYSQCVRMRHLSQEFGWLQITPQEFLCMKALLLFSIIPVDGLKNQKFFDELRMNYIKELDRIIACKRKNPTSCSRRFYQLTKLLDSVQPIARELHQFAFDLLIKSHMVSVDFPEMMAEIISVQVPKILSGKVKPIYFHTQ
Assay: androgen (R1881)-induced PSA([…].1kb)-luciferase reporter in LNCaP cells
Type: cell-based

CC(C)(c1ccc(OC[C@H](O)CNS(C)(=O)=O)cc1)c1cc(Cl)c(OC[C@H](O)CCl)c(Cl)c1 [EPI-7170]
IC50: 1080 ± 550 nM
